In US20230139826A1 (NONO INC., priority 2020, published 2023):
Residues, ends and D or L forms follow the SMILES beside them.

Assays:
plasmin = plasmin (Homo sapiens, UniProt P00747)
Description: (A) LC/MS spectrum of nerinetide after incubation with plasmin in PBS. 10 uL aliquots of nerinetide (18 mg/mL) and plasmin (1 mg/mL) were incubated in 500 uL tubes of phosphate-buffered saline at 37 C for 5 min and the reaction stopped by cooling to −80 C until tested. […] (B, C) In-vitro effect of rt-PA on nerinetide content in rat (B) and human (C) plasma. Nerinetide was spiked into the plasma samples at t=0 at a concentration of 65 ug/ml, whereas alteplase (rt-PA) was administered as a 60 min infusion at the indicated concentration (D, E) In-vivo effect of the simultaneous administration of nerinetide and rt-PA on Cmax (D) and AUC (E) in the rat. The nerinetide bolus and alteplase (60 min infusion) were started simultaneously through two separate intravenous lines. Symbols represent mean±SD. […] […] (SEQ ID NO:3) (Full-length NA-1, undigested), […] […] (SEQ ID NO:8), […] […] (SEQ ID NO:10).
Direct ELISA of the indicated biotinylated peptides to the PDZ2 domain of PSD-95. […] Symbols indicate the mean±SD of triplicate experiments. […] (B). […] E,F. Time course of nerinetide or D-TAT-L-2B9c content in rat plasma (E) and human plasma (F) during a challenge with tenecteplase (TNK; 37.5 ug/ml or 6.25 ug/ml, respectively). […] (repeated measures two-way ANOVA with a post hoc Sidak's multiple comparisons test, *P<0.01). Symbols are means±SD. […]

[1] = Plasma half-life in humans; type: in vivo; conditions: intravenous, 2.6 mg/kg, human, human equivalent concentrations
[2] = tested on: embolic middle cerebral artery occlusion (eMCAO); assay: Rat embolic middle cerebral artery occlusion model with alteplase reperfusion; type: in vivo, Sprague-Dawley rats
Description: To test this, male Sprague-Dawley rats (10-12 weeks old; 270-310 g; Charles River, Montreal, QC, Canada) were subjected to embolic middle cerebral artery occlusion (eMCAO), produced by the introduction of an autologous blood thrombus into the middle cerebral artery. Reperfusion was achieved by treatment with intravenous alteplase at a total dose of 5.4 mg/kg beginning at 90 minutes after ischemia onset. Alteplase was administered using the human injection protocol in which 10% of the total dose is given as a bolus, with the remainder 90% of the dose being given over a 60-minute infusion. […] This dose was chosen because in pilot studies, higher doses of alteplase (10× human dose) produced unacceptable mortality rates due to hemorrhagic conversions of strokes. Nerinetide was administered either 30 minutes prior to, or concurrently with, the start of the alteplase administration (FIG. 5A) at a dose of 7.6 mg/kg. […] Infarct volumes, hemispheric swelling and neurological scores were evaluated at 24 hours.
Male Sprague-Dawley rats were subjected to eMCAO as already described. Nerinetide (7.6 mg/kg) or D-Tat-L-2B9c (7.6 mg/kg) were given as bolus injections at 60 minutes. Alteplase (5.4 mg/kg over 60 min) was also started at 60 min after eMCAO, concurrently with the active agent that inhibits PSD-95. Neurological scoring, infarct volume, and hemispheric swelling were assessed at 24 hours (FIG. 8A).
The studies were designed to have 80% power to detect a 40% absolute difference between control and treatment groups at p=0.05. Animal randomization, drug allocation and treatment drug preparation were performed by a research associate not directly involved with surgical or outcome assessment. Nerinetide and D-Tat-L-2B9c were freshly prepared at a concentration of 7.6 mg/mL in 500 uL aliquots. Alteplase was prepared from lyophilized drug and, like matching placebo, stored in identical glass tubes. Drugs were kept at 4° C. until 10 minutes prior to use. The surgeon and the investigators responsible for the surgery, stroke volume measurement, behavioural assessment and statistical analysis were blinded to treatment allocation.

[3] = 30-minute dose separation between nerinetide and alteplase

Chain of plasmin (P00747 581-810 limits assumed, species assumed): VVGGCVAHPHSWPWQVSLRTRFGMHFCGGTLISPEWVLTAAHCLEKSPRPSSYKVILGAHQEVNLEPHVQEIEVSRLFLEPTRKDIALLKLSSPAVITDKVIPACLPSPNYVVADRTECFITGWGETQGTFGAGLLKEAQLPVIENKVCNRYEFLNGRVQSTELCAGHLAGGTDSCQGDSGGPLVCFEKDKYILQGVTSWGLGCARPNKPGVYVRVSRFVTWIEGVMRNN
Chain of plasmin (P00747 97-580 partner limits assumed, species assumed): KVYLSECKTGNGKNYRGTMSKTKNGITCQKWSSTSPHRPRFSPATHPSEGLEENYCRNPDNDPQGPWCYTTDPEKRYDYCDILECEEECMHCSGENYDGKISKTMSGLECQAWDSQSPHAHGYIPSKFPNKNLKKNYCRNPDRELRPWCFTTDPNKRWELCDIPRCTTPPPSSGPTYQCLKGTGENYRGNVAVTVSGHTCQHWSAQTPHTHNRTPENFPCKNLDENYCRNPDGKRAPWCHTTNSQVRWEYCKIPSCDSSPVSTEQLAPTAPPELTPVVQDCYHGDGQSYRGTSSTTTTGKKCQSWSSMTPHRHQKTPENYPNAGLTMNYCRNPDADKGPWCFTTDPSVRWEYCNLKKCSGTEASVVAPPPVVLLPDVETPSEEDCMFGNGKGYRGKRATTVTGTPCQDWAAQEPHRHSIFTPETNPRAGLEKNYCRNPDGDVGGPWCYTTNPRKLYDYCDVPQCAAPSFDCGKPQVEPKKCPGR

CC[C@H](C)[C@H](NC(=O)[C@H](CO)NC(=O)[C@H](CO)NC(=O)[C@H](CC(C)C)NC(=O)[C@H](CCCCN)NC(=O)[C@H](CCCN=C(N)N)NC(=O)[C@H](CCCN=C(N)N)NC(=O)[C@H](CCCN=C(N)N)NC(=O)[C@H](CCC(N)=O)NC(=O)[C@H](CCCN=C(N)N)NC(=O)[C@H](CCCN=C(N)N)NC(=O)[C@H](CCCCN)NC(=O)[C@H](CCCCN)NC(=O)[C@H](CCCN=C(N)N)NC(=O)CNC(=O)[C@@H](N)Cc1ccc(O)cc1)C(=O)N[C@@H](CCC(=O)O)C(=O)N[C@@H](CO)C(=O)N[C@@H](CC(=O)O)C(=O)N[C@H](C(=O)O)C(C)C [Nerinetide] (H-YGRKKRRQRRRKLSSIESDV-OH)
stability alone in phosphate buffered saline (plasmin): stable | half-life [1]: 5 to 10 min | hemispheric swelling [2, 3]: reducing hemispheric swelling | neurological scores [2, 3]: improving neurological scores | reduction of infarction volume ([2]; nerinetide alone 7.6 mg/kg, 60 minutes after eMCAO, 24 hours): 59.2% | infarction volume ([2]; nerinetide alone 60 minutes after eMCAO (FIG. 5B), control 427±27): 175±40 mm^3 | infarction volume ([2]; nerinetide alone 60 minutes after eMCAO, absence of alteplase (FIG. 8B), control 458±39): 296±66 mm^3 | infarct volume reduction ([2]; nerinetide at 60 minutes followed by alteplase 30 minutes later): 70% | effect on infarction volume when given concurrently with alteplase ([2]; peptide 7.6 mg/kg and alteplase 5.4 mg/kg both at 60 min after eMCAO): eliminated completely
